Results on 18 compounds are retold here after patent US20190031618A1, “BENZIMIDAZOLE DERIVATIVES USEFUL AS CB-1 INVERSE AGONISTS” (Janssen Pharmaceutica NV, priority 2015, published 2019).

The EC50 is the concentration that produces a half-maximal response.

For series [1], the target named is Human CB1R (Cannabinoid receptor 1) (Homo sapiens, UniProt P21554). Description: CB-1 in vitro cAMP (HTRF) assay. The series is classed as cell-based. Conditions: HEK cells, cAMP HTRF, 250 nM forskolin; mean where tested more than once; read-out: CB1 HEK_cAMP EC50. The essentials:
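Intracellular cAMP from HTRF ratio (d2-cAMP vs Eu-cryptate anti-cAMP), converted to nM via per-plate standards, in stable human CB1R HEK-293 cells.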
For orientation: Time-resolved FRET reads energy transfer from a long-lived donor to a nearby acceptor.

A short description of series [2]: Five-Day Study in DIO Mice: plasma and brain compound levels. Conditions: mouse, in vivo, 30 mg/kg.
The next series relates to DIO mice. Description: Five-Day Study in DIO Mice: food intake, body weight, plasma insulin, fed blood glucose. The series is classed as in vivo. Conditions: for Plasma Insulin: 30 mg/kg, day 5, two hours after dosing, (Std Err). An excerpt:
Male 14-20-week old diet-induced obese mice are ordered from Taconic. Mice were started on a 60% fat diet (D12492, Research Diets, New Brunswick, N.J.) at 6 weeks of age. Mice are single-housed.
Male Sprague Dawley rats are ordered from Charles River (225-250 gm upon arrival). They are fed standard chow diet (Purina 5001) and housed 2 per cage. Male C57bl/6j mice are ordered from Charles River at 22-25 g and housed 3 per cage. They are fed standard chow (Purina 5001). All animals are housed in a temperature-controlled room with 12-hour light/dark cycle. Animals are given food and water ad libitum, except as noted.
Test compounds are administered by oral gavage (5 ml kg^−1 or 10 ml kg^−1).

Setting [3] is: 30 mg/kg daily oral, Day 1, (Std Err).
[4] abbreviates: 30 mg/kg daily oral, Day 2, (Std Err).
Setting [5] is: 30 mg/kg daily oral, Day 3, (Std Err).
[6] abbreviates: 30 mg/kg daily oral, Day 4, (Std Err).
Setting [7] is: 30 mg/kg group, Day 0, (Std Err).

“And” between values parts separate entries of the source, which are not always exact repeats. Equal entries are not always repeated.

Chain of Human CB1R (Cannabinoid receptor 1) (P21554 whole entry): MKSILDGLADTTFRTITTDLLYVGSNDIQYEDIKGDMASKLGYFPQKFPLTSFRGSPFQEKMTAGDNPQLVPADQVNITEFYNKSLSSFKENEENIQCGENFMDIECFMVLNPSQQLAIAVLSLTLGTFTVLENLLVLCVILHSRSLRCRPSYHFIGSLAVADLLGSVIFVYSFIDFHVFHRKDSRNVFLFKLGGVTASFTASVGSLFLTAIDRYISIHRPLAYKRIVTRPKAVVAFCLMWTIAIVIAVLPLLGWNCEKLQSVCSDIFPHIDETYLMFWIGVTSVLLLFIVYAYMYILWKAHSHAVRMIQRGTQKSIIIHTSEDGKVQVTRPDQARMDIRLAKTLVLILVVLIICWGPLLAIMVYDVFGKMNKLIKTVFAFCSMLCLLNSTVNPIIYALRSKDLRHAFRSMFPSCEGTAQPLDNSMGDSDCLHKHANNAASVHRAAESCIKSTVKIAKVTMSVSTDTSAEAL

Turning to `CCc1nc2ccc(C(c3ccc(Cl)cc3)c3nccs3)cc2n1C1CCN(S(=O)(=O)C(F)(F)F)CC1` (stereo not shown) [Example 400], the concentration for a half-maximal effect (EC50) in series [1] came to 6 nM.

Turning to `O=C(O)c1cccc(CN2CCC(n3c(C4CC4)nc4ccc(C(c5ccc(Cl)cc5)c5ccc(Cl)cc5)cc43)CC2)c1` [Example 148], the half-maximal effective concentration (EC50) in series [1] was found to be 9.6 nM.

With `O=C(O)c1csc(S(=O)(=O)N2CCC(n3c(C4CC4)nc4ccc(C(c5ccc(Cl)cc5)c5ccc(Cl)cc5)cc43)CC2)c1` [Example 221], in series [1], the EC50 was found to be 8.5 nM.

Take `O=C(O)c1ccc(CN2CCC(n3c(C4CC4)nc4ccc(C(c5ccc(Cl)cc5)c5ccc(Cl)cc5)cc43)CC2)nc1` [Example 124]: the 50% effective concentration (EC50) in series [1] is 34.9 nM.

For `CCc1nc2ccc(C(c3ccc(Cl)cc3)c3ccc(Cl)cc3)cc2n1CC1CCN(S(=O)(=O)C(F)(F)F)CC1` [Example 315], the EC50 in series [1] is 5.3 nM.

With `O=C(O)c1cc(F)cc(CN2CCC(n3c(C4CC4)nc4ccc(C(c5ccc(Cl)cc5)c5ccc(Cl)cc5)cc43)CC2)c1` [Example 89], the half-maximal effective concentration (EC50) in series [1] was determined as 7.2 nM.

Take `O=S(=O)(N1CCC(Cn2c(C3CC3)nc3ccc(C(c4ccc(Cl)cc4)c4ccc(Cl)cc4)cc32)CC1)C(F)(F)F` [Example 316]: the EC50 in series [1] was found to be 2.8 nM.

Take `O=C(O)c1ccc(S(=O)(=O)N2CCC(n3c(C4CC4)nc4ccc(C(c5ccc(Cl)cc5)c5ccc(Cl)cc5)cc43)CC2)o1` [Example 232]: the EC50 in series [1] amounted to 17.6 nM.

In the case of `CCc1nc2ccc(C(c3ccc(Cl)cc3)c3ccc(Cl)cc3)cc2n1C1CCN(S(=O)(=O)C(F)(F)F)CC1` [Example 328], the concentration at 2 h in series [2] was 8360 ng/mL and 291 ng/g. Besides, the EC50 in series [1] worked out at 8.4 nM. Further, the “Mean Body Weight” value is reported as 41.2 (0.7) Grams with DIO mice (setting [3]); 39.6 (0.6) Grams with DIO mice (setting [4]); 38.6 (0.6) Grams in the series on DIO mice (setting [5]); 38.2 (0.7) Grams in the series with DIO mice (setting [6]); 43.6 (0.7) Grams in the series with DIO mice (setting [7]). Also, the “Mean Daily Food Intake” value is reported as 0.5 (0.1) Grams with DIO mice (setting [3]), 0.5 (0.1) Grams in the series on DIO mice (setting [4]), 0.7 (0.1) Grams in the series on DIO mice (setting [5]) and 1.2 (0.1) Grams in the series on DIO mice (setting [6]). Moreover, the “Fed Blood Glucose” value is recorded as 154 (7) mg/dL with DIO mice (setting [6]) and 183 (9) mg/dL with DIO mice (setting [7]). In addition, the “Plasma Insulin” value in the series with DIO mice is 1.31 (0.13) ng/mL.

For `O=S(=O)(c1cccc(O)c1)N1CCC(n2c(C3CC3)nc3ccc(C(c4ccc(Cl)cc4)c4ccc(Cl)cc4)cc32)CC1` [Example 259], in series [1], the 50% effective concentration (EC50) was determined as 3.7 nM.

`O=C(O)c1ccc(F)c(CN2CCC(n3c(C4CC4)nc4ccc(C(c5ccc(Cl)cc5)c5ccc(Cl)cc5)cc43)CC2)c1` [Example 92]: in series [1], the concentration giving a half-maximal response (EC50) was determined as 15.9 nM.

Turning to `O=C(O)c1ccc(CN2CCC(n3c(C4CC4)nc4ccc(C(c5ccc(Cl)cc5)c5ccc(Cl)cc5)cc43)CC2)o1` [Example 129], the half-maximal effective concentration (EC50) in series [1] is 19.8 nM.

As to `O=S(=O)(N1CCC(n2c(C3CCC3)nc3ccc(C(c4ccc(Cl)cc4)c4ccc(Cl)cc4)cc32)CC1)C(F)(F)F` [Example 318], in series [1], the EC50 stood at 6.9 nM.

For `COc1ccc(C(c2ccc(OC)cc2)c2ccc3nc(C4CCC4)n(C4CCN(S(=O)(=O)C(F)(F)F)CC4)c3c2)cc1` [Example 320], the EC50 in series [1] was 69.3 nM.

For `O=C(O)c1cccc(CN2CCC(n3c(C4CC4)nc4ccc(C(c5ccc(Cl)cc5)c5ccc(Cl)cc5)cc43)CC2)n1` [Example 125], the half-maximal effective concentration (EC50) in series [1] is 17.7 nM.

Regarding `O=S(=O)(N1CCC(n2c(C3CC3)nc3ccc(C(c4ccc(Cl)cc4)c4ccc(Cl)cc4)cc32)CC1)C(F)(F)F` [Example 335], the concentration for a half-maximal effect (EC50) in series [1] is 5.6 nM. Further, the “Mean Body Weight” value with DIO mice (setting [3]) is given as 42.8 (0.8) Grams; with DIO mice (setting [4]) it was 41.4 (0.7) Grams; in the series on DIO mice (setting [5]), 40.3 (0.6) Grams; in the series on DIO mice (setting [6]), 39.4 (0.6) Grams; with DIO mice (setting [7]), 45.4 (0.7) Grams. The “Mean Daily Food Intake” value is 0.4 (0.1) Grams with DIO mice (setting [3]), 0.5 (0.1) Grams in the series with DIO mice (setting [4]), 0.5 (0.1) Grams in the series on DIO mice (setting [5]) and 1.1 (0.1) Grams with DIO mice (setting [6]). Further, the “Fed Blood Glucose” value with DIO mice (setting [6]) is recorded as 160 (6) mg/dL; with DIO mice (setting [7]) it was 187 (9) mg/dL. Moreover, in the series with DIO mice, the “Plasma Insulin” value is 2.72 (0.61) ng/mL.

As to `O=C(O)c1cccc(S(=O)(=O)N2CCC(n3c(C4CC4)nc4ccc(C(c5ccc(Cl)cc5)c5ccc(Cl)cc5)cc43)CC2)c1` [Example 242], the 50% effective concentration (EC50) in series [1] was found to be 18 nM.

As to `O=C(O)c1ccc(S(=O)(=O)N2CCC(n3c(C4CC4)nc4ccc(C(c5ccc(Cl)cc5)c5ccc(Cl)cc5)cc43)CC2)cc1` [Example 276], the EC50 in series [1] stood at 9.3 nM.
